Assay [1] addresses Replicase polyprotein 1a (Severe acute respiratory syndrome-related coronavirus, UniProt P0C6U8). As to the kind of experiment: Inhibition of SARS coronavirus main protease.
The target of assay [2] is Replicase polyprotein 1a (Severe acute respiratory syndrome-related coronavirus) (UniProt P0C6U8). As to the kind of experiment: Inhibition of SARS coronavirus main protease at 10 uM.

In the case of `O=S(=O)(Cc1[nH]c(-c2ccc(Cl)s2)c[s+]1)c1cccs1`, in assay [1], half-maximal inhibition (IC50) was put at 18 µM. In other words, the double-digit micromolar range.
The same measure, in the same setting: under `O=C(Oc1ccc(S(=O)(=O)c2ccc(OC(=O)C(Cl)=C(Cl)Cl)cc2)cc1)C(Cl)=C(Cl)Cl` stands 0.9 µM.
On the same count and under the same terms, under `CC(=O)c1ccccc1S(=O)(=O)c1ccccc1C(=O)O` stands 16 µM; under `CC1(C)CC(=O)c2c(NCc3ccco3)sc(C#N)c2C1`, 16 µM.
The same measure, in the same setting: under `Nc1ncc(S(=O)(=O)c2ccc(Cl)cc2)c(N)n1` stands 6 µM.
With `Clc1ccc(-c2noc(CSC3=NCCN3)n2)cc1`, in assay [2], the inhibition amounted to 61%.
Compound `O=[N+]([O-])c1ccc(S(=O)(=O)c2ccc([N+](=O)[O-])cc2)cc1` registered an IC50 in assay [1] of 25 µM. This counts as double-digit micromolar.
Still for that read-out and setting: under `O=C(O)c1ccc(S(=O)(=O)c2cc(Br)c(O)c(Br)c2)cc1` stands 16 µM.
In assay [1], `CCOC(=O)C(=CNc1ccc(S(=O)(=O)c2ccc(/N=C/C(C(=O)OCC)=C(\O)OCC)cc2)cc1)C(=O)OCC` had an IC50 of 32 µM. Compared with the last compound, the IC50 is about 2-fold higher.
For the compound `O=[N+]([O-])c1cc(C(F)(F)F)ccc1S(=O)(=O)c1ccc(Cl)cc1`, in assay [1], the half-maximal inhibitory concentration (IC50) was found to be 12 µM. This IC50 is about 2.7-fold lower than that of the compound before.
The same measure, in the same setting: the same measure for `CSc1[nH]nc(NC(=O)c2cccs2)c1S(=O)(=O)c1ccccc1`: 15 µM; for `Cc1nn(C)c(NCc2ccc(-c3cccs3)s2)c1[N+](=O)[O-]`: 20 µM.
`COc1ccc([N+](=O)[O-])c(S(=O)(=O)c2ccccc2)n1` came in with an inhibition in assay [2] of 58%.
Regarding `O=C(Cc1nccs1)c1nccs1`, the IC50 in assay [1] stood at 40 µM.
The same measure, in the same setting: under `Cc1oc(C(C)(C)C)cc1-c1cc(NS(=O)(=O)c2cccs2)[nH]n1` stands 10 µM; under `Cc1noc(NC(=O)c2ccc(-c3cc(C(F)(F)F)nn3C)s2)c1[N+](=O)[O-]`, 5 µM.
For the compound `O=[N+]([O-])c1ccc(S(=O)(=O)c2ccc(Cl)cc2)[n+]([O-])c1`, in assay [1], 15 µM corresponded to half-maximal inhibition (IC50).
Same read-out and setting: the same measure for `CCOC(=O)/C(C#N)=C/Nc1ccc(S(=O)(=O)c2ccc(/N=C/C(C#N)=C(\O)OCC)cc2)cc1`: 16 µM.

(Values after ChEMBL document CHEMBL1145342, “Structure-based drug design and structural biology study of novel nonpeptide inhibitors of severe acute respiratory syndrome coronavirus main protease” (J Med Chem, 2006).)
